# Test results published in patent publication US9040663B2, “Melanocortin receptor-specific peptides” (AstraZeneca AB, priority 2009, dated 2015).
# Where two headings read alike, the source gives them in different places.
# What was measured:
# hMC4-R [1] = biological target: T1, hMC4-R (Homo sapiens (Human), UniProt P32245); assay: High and low density hMC4-R functional assay (cAMP, HEK293-T-REx-MC4-R cells); assay type: cell-based; conditions: for Emax: NDP-α-MSH = 100%, read-out: Intrinsic Activity (%)
# T1 sequence (P32245 whole entry): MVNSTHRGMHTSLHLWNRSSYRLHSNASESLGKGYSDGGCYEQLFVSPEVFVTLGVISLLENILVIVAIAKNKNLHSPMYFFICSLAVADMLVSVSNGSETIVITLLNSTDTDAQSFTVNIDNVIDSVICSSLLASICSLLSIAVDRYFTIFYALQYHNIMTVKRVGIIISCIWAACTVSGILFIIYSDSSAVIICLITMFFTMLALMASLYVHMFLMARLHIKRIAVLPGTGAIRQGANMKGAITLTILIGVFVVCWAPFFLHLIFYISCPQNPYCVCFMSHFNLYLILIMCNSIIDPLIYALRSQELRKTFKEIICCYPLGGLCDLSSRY
# Experimental: The cells were then dispensed into 96-well plates (BD 353916) in 198 μL (about 5×10^4) cells/well and incubated for 10 minutes at 37° C. The compound to be tested was diluted with DMSO to a final concentration of 1 mM. […] 120 μL of the 1 mM compound stock was pipetted in the second column on the plate. […] All assay samples were run in duplicate (i.e. each sample was in two low dox and two high dox plates, respectively). The plates were gently shaken and incubated for 15 minutes at 37° C.
# hMC4-R [2] = biological target: T1, hMC4-R; assay: Competitive inhibition binding assay using [I125]-NDP-α-MSH, hMC4-R; conditions: membranes of HEK-293 cells expressing recombinant hMC4-R, read-out: MC4-R Ki
# Experimental: 7.1 Competitive Inhibition Assay using [I^125]-NDP-α-MSH.
# A competitive inhibition binding assay was performed for exemplified peptides according to the invention using membrane homogenates prepared from HEK-293 cells that express recombinant hMC4-R, hMC3-R, or hMC5-R, and from B-16 mouse melanoma cells (containing endogenous MC1-R). In some instances, HEK-293 cells that express recombinant hMC1-R were employed. Assays were performed in 96 well GF/B Millipore multiscreen filtration plates (MAFB NOB10) pre-coated with 0.5% bovine serum albumin (Fraction V). Membrane homogenates were incubated with 0.2 nM (for hMC4-R) 0.4 nM (for MC3-R and MC5-R) or 0.1 nM (for mouse B16 MC1-R or hMC1-R) [I^125]-NDP-α-MSH (Perkin Elmer) and increasing concentrations of test peptides of the present invention in buffer containing 25 mM HEPES buffer (pH 7.5) with 100 mM NaCl, 2 mM CaCl2, 2 mM MgCl2, 0.3 mM 1,10-phenanthroline, and 0.2% bovine serum albumin. After incubation for 60 minutes at 37° C., the assay mixture was filtered and the membranes washed three times with ice-cold buffer. Filters were dried and counted in a gamma counter for bound radioactivity. […] Maximal specific binding (100%) was defined as the difference in radioactivity (cpm) bound to cell membranes in the absence and presence of 1 μM NDP-α-MSH. […] Each assay was conducted in triplicate and the actual mean values are described, with results less than 0% reported as 0%. Ki values for test peptides of the present invention were determined using Graph-Pad Prism® curve-fitting software.
# [3] = 0.1 ng/mL Doxycycline (low density hMC4-R system)
# [4] = 10 ng/mL Doxycycline (high density hMC4-R system)
SMILES,EC50 (hMC4-R [1]; [3]),Emax (hMC4-R [1]; [3]),EC50 (hMC4-R [1]; [4]),Emax (hMC4-R [1]; [4]),Ki (hMC4-R [2])
"CC(=O)N[C@@H](CCCNC(=N)N)C(=O)N[C@H]1CCC(=O)NCCC[C@@H](C(N)=O)NC(=O)[C@H](Cc2c[nH]c3ccccc23)NC(=O)[C@H](CCCNC(=N)N)NC(=O)[C@@H](Cc2ccccc2[N+](=O)[O-])NC(=O)[C@H](CCN)NC1=O [Example 22, Ac-Arg-cyclo(Glu-Dab-D-Phe(2-NO2)-Arg-Trp-Orn)-NH2]",3 nM,78%,0.2 nM,93%,11 nM
"CC(=O)N[C@@H](CCCNC(=N)N)C(=O)N[C@H]1CCC(=O)NCCC[C@@H](C(N)=O)NC(=O)[C@H](Cc2c[nH]c3ccccc23)NC(=O)[C@H](CCCNC(=N)N)NC(=O)[C@@H](Cc2cc(F)cc(F)c2)NC(=O)[C@H](CCN)NC1=O [Example 17, Ac-Arg-cyclo(Glu-Dab-D-Phe(3,5-diF)-Arg-Trp-Orn)-NH2]",0.95 nM,64%,0.12 nM,95%,2 nM
"CC(=O)N[C@@H](CCCNC(=N)N)C(=O)N[C@H]1CCC(=O)NCCC[C@@H](C(N)=O)NC(=O)[C@H](Cc2c[nH]c3ccccc23)NC(=O)[C@H](CCCNC(=N)N)NC(=O)[C@@H](Cc2ccc(N)cc2)NC(=O)[C@H](CCN)NC1=O [Example 28, Ac-Arg-cyclo(Glu-Dab-D-Phe(4-NH2)-Arg-Trp-Orn)-NH2]",29 nM,35%,0.6 nM,94%,48 nM
"CC(=O)N[C@@H](CCCNC(=N)N)C(=O)N[C@H]1CCC(=O)NCCC[C@@H](C(N)=O)NC(=O)[C@H](Cc2c[nH]c3ccccc23)NC(=O)[C@H](CCCNC(=N)N)NC(=O)[C@@H](Cc2ccc(F)c(F)c2)NC(=O)[C@H](CCN)NC1=O [Example 26, Ac-Arg-cyclo(Glu-Dab-D-Phe(3,4-diF)-Arg-Trp-Orn)-NH2]",0.125 nM,74%,0.12 nM,90%,0.3 nM
"CC(=O)N[C@H](CCCNC(=N)N)C(=O)N[C@H]1CCCNC(=O)CC[C@@H](C(N)=O)NC(=O)[C@H](Cc2c[nH]c3ccccc23)NC(=O)[C@H](CCCNC(=N)N)NC(=O)[C@@H](Cc2ccc(F)c(F)c2)NC(=O)[C@H](Cc2c[nH]cn2)NC1=O [Example 54, Ac-D-Arg-cyclo(Orn-His-D-Phe(3,4-diF)-Arg-Trp-Glu)-NH2]",0.075 nM,56%,0.075 nM,92%,0.25 nM
"CC(=O)N[C@@H](CCCNC(=N)N)C(=O)N[C@H]1CCC(=O)NCCC[C@@H](C(N)=O)NC(=O)[C@H](Cc2c[nH]c3ccccc23)NC(=O)[C@H](CCCNC(=N)N)NC(=O)[C@@H](Cc2ccc([N+](=O)[O-])cc2)NC(=O)[C@H](CCN)NC1=O [Example 24, Ac-Arg-cyclo(Glu-Dab-D-Phe(4-NO2)-Arg-Trp-Orn)-NH2]",0.7 nM,15%,0.45 nM,99%,0.45 nM
"CC(=O)N[C@@H](CCCNC(=N)N)C(=O)N[C@H]1CCC(=O)NCCC[C@@H](C(N)=O)NC(=O)[C@H](Cc2c[nH]c3ccccc23)NC(=O)[C@H](CCCNC(=N)N)NC(=O)[C@@H](Cc2cccc(C)c2)NC(=O)[C@H](CCN)NC1=O [Example 19, Ac-Arg-cyclo(Glu-Dab-D-Phe(3-Me)-Arg-Trp-Orn)-NH2]",0.42 nM,35%,0.22 nM,97%,0.4 nM

# Now from value to molecule:
EC50 (hMC4-R [1]; [3]),Emax (hMC4-R [1]; [3]),EC50 (hMC4-R [1]; [4]),Emax (hMC4-R [1]; [4]),Ki (hMC4-R [2]),SMILES
16 nM,23%,0.47 nM,84%,9 nM,"CC(=O)N[C@@H](CCCNC(=N)N)C(=O)N[C@H]1CCC(=O)NCCC[C@@H](C(N)=O)NC(=O)[C@H](Cc2c[nH]c3ccccc23)NC(=O)[C@H](CCCNC(=N)N)NC(=O)[C@@H](Cc2ccccc2Cl)NC(=O)[C@H](CN)NC1=O [Example 62, Ac-Arg-cyclo(Glu-Dap-D-Phe(2-Cl)-Arg-Trp-Orn)-NH2]"
2 nM,79%,0.095 nM,95%,10 nM,"CC(=O)N[C@H](CCCNC(=N)N)C(=O)N[C@H]1CC(=O)NCCCC[C@@H](C(N)=O)NC(=O)[C@H](Cc2c[nH]c3ccccc23)NC(=O)[C@H](CCCNC(=N)N)NC(=O)[C@@H](Cc2ccccc2F)NC(=O)[C@H](CCC(N)=O)NC1=O [Example 82, Ac-D-Arg-cyclo(Asp-Gln-D-Phe(2-F)-Arg-Trp-Lys)-NH2]"
1 nM,32%,0.13 nM,100%,4 nM,"CC(=O)N[C@@H](CCCNC(=N)N)C(=O)N[C@H]1CC(=O)NCCCC[C@@H](C(N)=O)NC(=O)[C@H](Cc2c[nH]c3ccccc23)NC(=O)[C@H](CCCNC(=N)N)NC(=O)[C@@H](Cc2ccc(F)cc2)NC(=O)[C@@H]2CCCN2C1=O [Example 103, Ac-Arg-cyclo(Asp-Pro-D-Phe(4-F)-Arg-Trp-Lys)-NH2]"
3 nM,11%,0.35 nM,84%,4 nM,"CC(=O)N[C@@H](CCCNC(=N)N)C(=O)N[C@H]1CCCNC(=O)CC[C@@H](C(N)=O)NC(=O)[C@H](Cc2c[nH]c3ccccc23)NC(=O)[C@H](CCCNC(=N)N)NC(=O)[C@@H](Cc2cccc(C)c2)NC(=O)[C@H](CC(N)=O)NC1=O [Example 72, Ac-Arg-cyclo(Orn-Asn-D-Phe(3-Me)-Arg-Trp-Glu)-NH2]"
0.7 nM,32%,0.14 nM,94%,0.5 nM,"CC(=O)N[C@@H](CCCNC(=N)N)C(=O)N[C@H]1CCC(=O)NCCC[C@@H](C(N)=O)NC(=O)[C@H](Cc2c[nH]c3ccccc23)NC(=O)[C@H](CCCNC(=N)N)NC(=O)[C@@H](Cc2cccc(Cl)c2)NC(=O)[C@H](CCCNC(N)=O)NC1=O [Example 99, Ac-Arg-cyclo(Glu-Arg-D-Phe(3-Cl)-Arg-Trp-Orn)-NH2]"
,81%,,104%,6 nM,"CC(=O)N[C@@H](CCCNC(=N)N)C(=O)N[C@H]1CCCNC(=O)CC[C@@H](C(N)=O)NC(=O)[C@H](Cc2c[nH]c3ccccc23)NC(=O)[C@H](CCCNC(=N)N)NC(=O)[C@@H](Cc2ccccc2C)NC(=O)[C@H](CCC(N)=O)NC1=O [Example 111, Ac-Arg-cyclo(Orn-Gln-D-Phe(2-Me)-Arg-Trp-Glu)-NH2]"
2 nM,24%,0.235 nM,100%,2 nM,"CC(=O)N[C@@H](CCCNC(=N)N)C(=O)N[C@H]1CCCNC(=O)CC[C@@H](C(N)=O)NC(=O)[C@H](Cc2c[nH]c3ccccc23)NC(=O)[C@H](CCCNC(=N)N)NC(=O)[C@@H](Cc2cc(F)c(F)c(F)c2)NC(=O)[C@H](CC(N)=O)NC1=O [Example 96, Ac-Arg-cyclo(Orn-Asn-D-Phe(3,4,5-triF)-Arg-Trp-Glu)-NH2]"
0.95 nM,36%,0.14 nM,93%,1 nM,"CC(=O)N[C@@H](CCCNC(=N)N)C(=O)N[C@H]1CCC(=O)NCCC[C@@H](C(N)=O)NC(=O)[C@H](Cc2c[nH]c3ccccc23)NC(=O)[C@H](CCCNC(=N)N)NC(=O)[C@@H](Cc2cccc(Cl)c2)NC(=O)[C@H](CCCN)NC1=O [Example 101, Ac-Arg-cyclo(Glu-Orn-D-Phe(3-Cl)-Arg-Trp-Orn)-NH2]"
